From US20110086759A1, “CHEMICAL COMPOUNDS” (SYNGENTA CROP PROTECTION, INC., priority 2007, published 2011)

Key:
Format in all cases: in vivo
[1] = test system: Echinochloa crus-galli (ECHCG); assay: Pre-emergence biological efficacy, glasshouse pot test; conditions: 312 h
Summary of the method: (§1)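 Damage rated 0–100 (100 = total kill) 13 days post-spray. Pots of standard soil were sown and sprayed after one day with test compound at 1000 or 250 g/ha in acetone/water (50:50) plus 0.5% Tween 20.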

[2] = test system: Ipomea hederaceae (IPOHE); assay: as above; conditions: Ipomoea hederacea, 312 h
Summary of the method: as §1

[3] = test system: Alopecurus myosuroides (ALOMY); assay: as above; conditions: 312 h
Summary of the method: as §1

[4] = test system: Amaranthus retoflexus (AMARE); assay: as above; conditions: Amaranthus retroflexus, 312 h
Summary of the method: as §1

[5] = test system: Setaria faberi (SETFA); assay: as above; conditions: 312 h
Summary of the method: as §1

[6] = test system: Solanum nigrum (SOLNI); assay: as above; conditions: 312 h
Summary of the method: as §1

[7] = test system: Echinochloa crus-galli (ECHCG); assay: Post-emergence biological efficacy, glasshouse pot test; conditions: 312 h
Summary of the method: (§2)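 Pot-grown weeds were sprayed 8 days after sowing with test compound in acetone/water (50:50) with 0.5% Tween 20 at 1000 or 250 g/ha. Glasshouse at 24/16° C day/night, 14 h light, 65% humidity. Damage scored 0-100 (100 = total damage) after 13 days.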

[8] = test system: Ipomea hederaceae (IPOHE); assay: as above; conditions: Ipomoea hederacea, 312 h
Summary of the method: as §2

[9] = test system: Alopecurus myosuroides (ALOMY); assay: as above; conditions: 312 h
Summary of the method: as §2

[10] = test system: Amaranthus retoflexus (AMARE); assay: as above; conditions: Amaranthus retroflexus, 312 h
Summary of the method: as §2

[11] = test system: Setaria faberi (SETFA); assay: as above; conditions: 312 h
Summary of the method: as §2

[12] = test system: Solanum nigrum (SOLNI); assay: as above; conditions: 312 h
Summary of the method: as §2

[13] = pre-emergence, rate 1,000 g/ha, evaluated after 13 days (100=total damage to plant; 0=no damage), read-out: Percentage damage caused to weed species, ECHCG
[14] = pre-emergence, rate 1,000 g/ha, evaluated after 13 days (100=total damage to plant; 0=no damage), read-out: Percentage damage caused to weed species, IPOHE
[15] = pre-emergence, rate 1,000 g/ha, evaluated after 13 days (100=total damage to plant; 0=no damage), read-out: Percentage damage caused to weed species, ALOMY
[16] = pre-emergence, rate 1,000 g/ha, evaluated after 13 days (100=total damage to plant; 0=no damage), read-out: Percentage damage caused to weed species, AMARE
[17] = pre-emergence, rate 1,000 g/ha, evaluated after 13 days (100=total damage to plant; 0=no damage), read-out: Percentage damage caused to weed species, SETFA
[18] = pre-emergence, rate 1,000 g/ha, evaluated after 13 days (100=total damage to plant; 0=no damage), read-out: Percentage damage caused to weed species, SOLNI
[19] = Rate 1,000 g/ha, post-emergence spray, evaluated after 13 days (100=total damage to plant; 0=no damage to plant), read-out: Percentage damage caused to weed species, post-emergence, ECHCG
[20] = Rate 1,000 g/ha, post-emergence spray, evaluated after 13 days (100=total damage to plant; 0=no damage to plant), read-out: Percentage damage caused to weed species, post-emergence, IPOHE
[21] = Rate 1,000 g/ha, post-emergence spray, evaluated after 13 days (100=total damage to plant; 0=no damage to plant), read-out: Percentage damage caused to weed species, post-emergence, ALOMY
[22] = Rate 1,000 g/ha, post-emergence spray, evaluated after 13 days (100=total damage to plant; 0=no damage to plant), read-out: Percentage damage caused to weed species, post-emergence, AMARE
[23] = Rate 1,000 g/ha, post-emergence spray, evaluated after 13 days (100=total damage to plant; 0=no damage to plant), read-out: Percentage damage caused to weed species, post-emergence, SETFA
[24] = Rate 1,000 g/ha, post-emergence spray, evaluated after 13 days (100=total damage to plant; 0=no damage to plant), read-out: Percentage damage caused to weed species, post-emergence, SOLNI
[25] = pre-emergence, 1,000 g/ha, evaluated after 13 days (100=total damage; 0=no damage), read-out: Percentage damage ECHCG
[26] = pre-emergence, 1,000 g/ha, evaluated after 13 days (100=total damage; 0=no damage), read-out: Percentage damage IPOHE
[27] = pre-emergence, 1,000 g/ha, evaluated after 13 days (100=total damage; 0=no damage), read-out: Percentage damage ALOMY
[28] = pre-emergence, 1,000 g/ha, evaluated after 13 days (100=total damage; 0=no damage), read-out: Percentage damage AMARE
[29] = pre-emergence, 1,000 g/ha, evaluated after 13 days (100=total damage; 0=no damage), read-out: Percentage damage SETFA
[30] = pre-emergence, 1,000 g/ha, evaluated after 13 days (100=total damage; 0=no damage), read-out: Percentage damage SOLNI
[31] = post-emergence, 1,000 g/ha, evaluated after 13 days (100=total damage; 0=no damage), read-out: Percentage damage caused to weed species, ECHCG
[32] = post-emergence, 1,000 g/ha, evaluated after 13 days (100=total damage; 0=no damage), read-out: Percentage damage caused to weed species, IPOHE
[33] = post-emergence, 1,000 g/ha, evaluated after 13 days (100=total damage; 0=no damage), read-out: Percentage damage caused to weed species, ALOMY
[34] = post-emergence, 1,000 g/ha, evaluated after 13 days (100=total damage; 0=no damage), read-out: Percentage damage caused to weed species, AMARE
[35] = post-emergence, 1,000 g/ha, evaluated after 13 days (100=total damage; 0=no damage), read-out: Percentage damage caused to weed species, SETFA
[36] = post-emergence, 1,000 g/ha, evaluated after 13 days (100=total damage; 0=no damage), read-out: Percentage damage caused to weed species, SOLNI

| Compound | pest or weed control at 1000 g/ha [1, 13] [%] | pest or weed control at 1000 g/ha [2, 14] [%] | pest or weed control at 1000 g/ha [3, 15] [%] | pest or weed control at 1000 g/ha [4, 16] [%] | pest or weed control at 1000 g/ha [5, 17] [%] | pest or weed control at 1000 g/ha [6, 18] [%] | pest or weed control at 1000 g/ha [7, 19] [%] | pest or weed control at 1000 g/ha [8, 20] [%] | pest or weed control at 1000 g/ha [9, 21] [%] | pest or weed control at 1000 g/ha [10, 22] [%] | pest or weed control at 1000 g/ha [11, 23] [%] | pest or weed control at 1000 g/ha [12, 24] [%] | pest or weed control at 1000 g/ha [1, 25] [%] | pest or weed control at 1000 g/ha [2, 26] [%] | pest or weed control at 1000 g/ha [3, 27] [%] | pest or weed control at 1000 g/ha [4, 28] [%] | pest or weed control at 1000 g/ha [5, 29] [%] | pest or weed control at 1000 g/ha [6, 30] [%] | pest or weed control at 1000 g/ha [7, 31] [%] | pest or weed control at 1000 g/ha [8, 32] [%] | also measured |
| --- | --- | --- | --- | --- | --- | --- | --- | --- | --- | --- | --- | --- | --- | --- | --- | --- | --- | --- | --- | --- | --- |
| COC(=O)c1nc(-c2ccc(OC)c(OC)c2)nc(NCc2ccco2)c1Cl [Compound 260-48, 5-Chloro-2-(3,4-dimethoxyphenyl)-4-(furan-2-ylmethyl-amino)-6-methoxy-carbonylpyrimidine] | 0 | 0 | 0 | 0 | 0 | 0 | 0 | 0 | 0 | 20 | 0 | 30 |  |  |  |  |  |  |  |  |  |
| COC(=O)c1nc(C2CC2)nc(NC2CCCC2O)c1Cl (stereo not drawn) [Compound 4-34, 5-Chloro-2-cyclopropyl-4-(2-hydroxycyclopentylamino)-6-methoxycarbonyl-pyrimidine] |  |  |  |  |  |  |  |  |  |  |  |  | 20 | 90 | 30 | 100 | 50 | 80 | 60 | 60 | pest or weed control at 1000 g/ha [9, 33]: 20%; pest or weed control at 1000 g/ha [10, 34]: 100%; pest or weed control at 1000 g/ha [11, 35]: 60%; pest or weed control at 1000 g/ha [12, 36]: 80% |
| CCOC(=O)C(Nc1nc(C2CC2)nc(C(=O)OC)c1Cl)c1ccccc1 (stereo not drawn) [Compound 4-214, 5-Chloro-2-cyclopropyl-4-[(1-ethoxycarbonyl-1-phenyl)-methyl-amino]-6-methoxy-carbonylpyrimidine] |  |  |  |  |  |  |  |  |  |  |  |  | 60 | 100 | 20 | 100 | 40 | 90 | 70 | 100 | pest or weed control at 1000 g/ha [9, 33]: 50%; pest or weed control at 1000 g/ha [10, 34]: 100%; pest or weed control at 1000 g/ha [11, 35]: 70%; pest or weed control at 1000 g/ha [12, 36]: 80% |
| COC(=O)c1nc(-c2ccc(C)c(Cl)c2)nc(NCc2ccco2)c1Cl [Compound 239-48, 5-Chloro-2-(3-chloro-4-methylphenyl)-4-(furan-2-yl-methyl-amino)-6-methoxy-carbonylpyrimidine] | 0 | 0 | 0 | 0 | 0 | 0 | 0 | 30 | 0 | 20 | 0 | 30 |  |  |  |  |  |  |  |  |  |
| COC(=O)c1nc(C2CC2)nc(NCc2ccccc2OC)c1Cl [Compound 4-78, 5-Chloro-2-cyclopropyl-6-methoxycarbonyl-4-(2-methoxyphenyl-methylamino)-pyrimidine] |  |  |  |  |  |  |  |  |  |  |  |  | 60 | 100 | 20 | 90 | 40 | 90 | 70 | 100 | pest or weed control at 1000 g/ha [9, 33]: 30%; pest or weed control at 1000 g/ha [10, 34]: 100%; pest or weed control at 1000 g/ha [11, 35]: 80%; pest or weed control at 1000 g/ha [12, 36]: 90% |
| COC(=O)c1nc(C2CC2)nc(N(C)CC(O)c2ccccc2)c1Cl (stereo not drawn) [Compound 5-257, 5-Chloro-2-cyclopropyl-4-[N-(2-hydroxy-2-phenyl-ethyl)-N-methyl-amino]-6-methoxy-carbonylpyrimidine] | 30 | 50 | 10 | 100 | 10 | 100 | 30 | 80 | 20 | 100 | 50 | 80 |  |  |  |  |  |  |  |  |  |
| COC(=O)c1nc(C2CC2)nc(N(C)Cc2ccc(OC)cc2)c1Cl [Compound 5-80, 5-Chloro-2-cyclopropyl-6-methoxycarbonyl-4-[N-(4-methoxy-phenyl)methyl-N-methyl-amino]-pyrimidine] | 0 | 60 | 0 | 100 | 20 | 30 | 50 | 100 | 20 | 100 | 80 | 100 |  |  |  |  |  |  |  |  |  |
| COC(=O)c1nc(C2CC2)nc(N(C)CCc2ccccn2)c1Cl [Compound 5-228, 5-Chloro-2-cyclopropyl-6-methoxycarbonyl-4-[N-methyl-N-(2-pyrid-2-ylethyl)-amino]pyrimidine] | 0 | 0 | 0 | 80 | 0 | 70 | 30 | 90 | 20 | 100 | 40 | 70 |  |  |  |  |  |  |  |  |  |
| COC(=O)c1nc(C2CC2)nc(N(C)C(C)C(O)c2ccccc2)c1Cl (stereo not drawn) [Compound 5-270, 5-Chloro-2-cyclopropyl-4-[N-(2-hydroxy-1-methyl-2-phenyl-ethyl)-N-methyl-amino]-6-methoxycarbonyl-pyrimidine] | 0 | 20 | 10 | 90 | 0 | 50 | 0 | 90 | 10 | 90 | 30 | 80 |  |  |  |  |  |  |  |  |  |
